Measurements reported in article PMC9848300, “Discovery of novel enasidenib analogues targeting inhibition of mutant isocitrate dehydrogenase 2 as antileukaemic agents” (Journal of Enzyme Inhibition and Medicinal Chemistry, 2023).
Where “and” joins values, the source holds several entries; their conditions need not be identical. Equal entries are not always repeated.

What was measured:
[1] = tested on: MDA-MB-435; experiment: NCI 60 antitumor screening (single dose / five doses); format: cell-based; details: Homo sapiens
[2] = tested on: HCT-116; experiment: as above; format: cell-based; details: Homo sapiens
[3] = tested on: TK-10; experiment: NCI 60 antitumor screening (single dose); format: cell-based; details: Homo sapiens; TK-10 (renal cancer), single dose 10 μM; read-out: Growth inhibition percentage (GI %)
Outline: (§1)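 Values are GI% (100 − G%) from the NCI 60-line single-dose screen, compound at 10 μM.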

[4] = tested on: SNB-19; experiment: NCI 60 antitumor screening (single dose); format: cell-based; details: Homo sapiens; SNB-19 (CNS cancer), single dose 10 μM; read-out: Growth inhibition percentage (GI %)
Outline: as §1

[5] = tested on: HCC-2998; experiment: NCI 60 antitumor screening (single dose); format: cell-based; details: Homo sapiens; HCC-2998 (colon cancer), single dose 10 μM; read-out: Growth inhibition percentage (GI %)
Outline: (§2)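 NCI-60 one-dose screen. Dose: 10 μM. Lines: 60 human tumour lines, nine tissue types. Output: GI% = 100 − G%.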

[6] = tested on: MDA-MB-231/ATCC; experiment: NCI 60 antitumor screening (single dose / five doses); format: cell-based; details: Homo sapiens
[7] = tested on: 786-0; experiment: as above; format: cell-based; details: Homo sapiens
[8] = tested on: IGROV1; experiment: as above; format: cell-based; details: Homo sapiens, IGROV-1
[9] = tested on: NCI/ADR-RES; experiment: as above; format: cell-based; details: Homo sapiens
[10] = tested on: SW-620; experiment: as above; format: cell-based, human; details: Homo sapiens
[11] = tested on: HOP-92; experiment: as above; format: cell-based; details: Homo sapiens
[12] = tested on: CCRF-CEM; experiment: as above; format: cell-based; details: Homo sapiens
[13] = tested on: A498; experiment: as above; format: cell-based; details: Homo sapiens
[14] = tested on: MDA-MB-468; experiment: as above; format: cell-based; details: Homo sapiens
[15] = tested on: UO-31; experiment: as above; format: cell-based; details: Homo sapiens
[16] = tested on: SF-539; experiment: as above; format: cell-based; details: Homo sapiens
[17] = tested on: 60 human subpanel cancer cell lines; experiment: NCI 60 antitumor screening, mean over the panel (single dose); format: cell-based; details: mean over 60 cancer cell lines, single dose 10 μM
Outline: as §2

[18] = tested on: SF-295; experiment: NCI 60 antitumor screening (single dose / five doses); format: cell-based; details: Homo sapiens
[19] = tested on: SR; experiment: as above; format: cell-based; details: Homo sapiens
[20] = tested on: EKVX; experiment: as above; format: cell-based; details: Homo sapiens
[21] = tested on: RPMI-8226; experiment: as above; format: cell-based; details: Homo sapiens
[22] = tested on: LOX IMVI; experiment: as above; format: cell-based; details: Homo sapiens
[23] = tested on: SK-MEL-2; experiment: as above; format: cell-based; details: Homo sapiens
[24] = tested on: COLO 205; experiment: as above; format: cell-based; details: Homo sapiens
[25] = tested on: UACC-62; experiment: as above; format: cell-based; details: Homo sapiens
[26] = tested on: HCT-15; experiment: as above; format: cell-based; details: Homo sapiens
[27] = tested on: BT-549; experiment: as above; format: cell-based; details: Homo sapiens
[28] = tested on: RXF 393; experiment: as above; format: cell-based; details: Homo sapiens

Clc1cccc(/C=N/Nc2nc(N/N=C/c3cccc(Cl)c3)nc(N3CCOCC3)n2)c1 [compound 6d, 2,4-Bis[(E)-2-[(3-chlorophenyl)methylidene]hydrazin-1-yl]-6-(morpholin-4-yl)-1,3,5-triazine]
inhibition at 10 µM ([1]; MDA-MB-435 (melanoma), single dose 10 μM, read-out: Growth inhibition percentage (GI %)): 50.7%
GI50 ([1]; MDA-MB-435, five doses (0.01–100 μM), read-out: GI50): 4.24 µM
inhibition at 10 µM ([2]; HCT-116 (colon cancer), single dose 10 μM, read-out: Growth inhibition percentage (GI %)): 77.2%
GI50 ([2]; HCT-116, five doses (0.01–100 μM), read-out: GI50): 1.27 µM
inhibition at 10 µM [3]: -0.21%
inhibition at 10 µM [4]: 12.1%
inhibition at 10 µM [5]: 41%
GI50 ([6]; MDA-MB-231/ ATCC, five doses (0.01–100 μM), read-out: GI50): 9.16 µM
inhibition at 10 µM ([6]; MDA-MB-231/ATCC (breast cancer), single dose 10 μM, read-out: Growth inhibition percentage (GI %)): 28.7%
inhibition at 10 µM ([7]; 786-0, 786-0 (renal cancer), single dose 10 μM, read-out: Growth inhibition percentage (GI %)): 69.4%
GI50 ([7]; 786-0, five doses (0.01–100 μM), read-out: GI50): 1.07 µM
inhibition at 10 µM ([8]; IGROV1 (ovarian cancer), single dose 10 μM, read-out: Growth inhibition percentage (GI %)): 49.4%
GI50 ([8]; IGROV1, five doses (0.01–100 μM), read-out: GI50): 4.61 µM
inhibition at 10 µM ([9]; NCI/ADR-RES (ovarian cancer), single dose 10 μM, read-out: Growth inhibition percentage (GI %)): 38.2%
GI50 ([9]; NCI/ADR-RES, five doses (0.01–100 μM), read-out: GI50): 4.58 µM
GI50 ([10]; SW-620, SW-620, five doses (0.01–100 μM), read-out: GI50): 1.78 µM
inhibition at 10 µM ([10]; SW-620 (colon cancer), single dose 10 μM, read-out: Growth inhibition percentage (GI %)): 81.9%
inhibition at 10 µM ([11]; HOP-92 (non-small cell lung cancer), single dose 10 μM, read-out: Growth inhibition percentage (GI %)): 34.5%
GI50 ([11]; HOP-92, five doses (0.01–100 μM), read-out: GI50): 2.17 µM
inhibition at 10 µM ([12]; CCRF-CEM (leukaemia), single dose 10 μM, read-out: Growth inhibition percentage (GI %)): 75.2%
GI50 ([12]; CCRF-CEM, five doses (0.01–100 μM), read-out: GI50): 1.34 µM
inhibition at 10 µM ([13]; A498 (renal cancer), single dose 10 μM, read-out: Growth inhibition percentage (GI %)): 95.7%
GI50 ([13]; A498, five doses (0.01–100 μM), read-out: GI50): 1.67 µM
inhibition at 10 µM ([14]; MDA-MB-468 (breast cancer), single dose 10 μM, read-out: Growth inhibition percentage (GI %)): 69.2%
GI50 ([14]; MDA-MB-468, five doses (0.01–100 μM), read-out: GI50): 1.65 µM
inhibition at 10 µM ([15]; UO-31 (renal cancer), single dose 10 μM, read-out: Growth inhibition percentage (GI %)): 73.2%
GI50 ([15]; UO-31, five doses (0.01–100 μM), read-out: GI50): 1.61 µM
inhibition at 10 µM ([16]; SF-539 (CNS cancer), single dose 10 μM, read-out: Growth inhibition percentage (GI %)): 56.4%
GI50 ([16]; SF-539, five doses (0.01–100 μM), read-out: GI50): 5.39 µM
Mean GI % [17]: 53.70% and 53.69%
inhibition at 10 µM ([18]; SF-295 (CNS cancer), single dose 10 μM, read-out: Growth inhibition percentage (GI %)): 42.4%
GI50 ([18]; SF-295, five doses (0.01–100 μM), read-out: GI50): 4.13 µM
inhibition at 10 µM ([19]; SR (leukaemia), single dose 10 μM, read-out: Growth inhibition percentage (GI %)): 92.3%
GI50 ([19]; SR, five doses (0.01–100 μM), read-out: GI50): 0.32 µM
inhibition at 10 µM ([20]; EKVX (non-small cell lung cancer), single dose 10 μM, read-out: Growth inhibition percentage (GI %)): 27.8%
GI50 ([20]; EKVX, five doses (0.01–100 μM), read-out: GI50): 4.23 µM
inhibition at 10 µM ([21]; RPMI-8226 (leukaemia), single dose 10 μM, read-out: Growth inhibition percentage (GI %)): 61.2%
GI50 ([21]; RPMI-8226, five doses (0.01–100 μM), read-out: GI50): 1.9 µM
inhibition at 10 µM ([22]; LOX IMVI (melanoma), single dose 10 μM, read-out: Growth inhibition percentage (GI %)): 67.4%
GI50 ([22]; LOX IMVI, five doses (0.01–100 μM), read-out: GI50): 2.99 µM
inhibition at 10 µM ([23]; SK-MEL-2 (melanoma), single dose 10 μM, read-out: Growth inhibition percentage (GI %)): 102%
GI50 ([23]; SK-MEL-2, five doses (0.01–100 μM)): 2.18 µM
inhibition at 10 µM ([24]; COLO 205 (colon cancer), single dose 10 μM, read-out: Growth inhibition percentage (GI %)): 63.1%
GI50 ([24]; COLO 205, five doses (0.01–100 μM), read-out: GI50): 1.23 µM
inhibition at 10 µM ([25]; UACC-62 (melanoma), single dose 10 μM, read-out: Growth inhibition percentage (GI %)): 8.33%
GI50 ([25]; UACC-62, five doses (0.01–100 μM), read-out: GI50): 4.54 µM
inhibition at 10 µM ([26]; HCT-15 (colon cancer), single dose 10 μM, read-out: Growth inhibition percentage (GI %)): 111%
GI50 ([26]; HCT-15, five doses (0.01–100 μM), read-out: GI50): 0.91 µM
inhibition at 10 µM ([27]; BT-549 (breast cancer), single dose 10 μM, read-out: Growth inhibition percentage (GI %)): 7.26%
GI50 ([27]; BT-549, five doses (0.01–100 μM), read-out: GI50): 3.22 µM
inhibition at 10 µM ([28]; RXF 393 (renal cancer), single dose 10 μM, read-out: Growth inhibition percentage (GI %)): 82.5%
GI50 ([28]; RXF 393, five doses (0.01–100 μM), read-out: GI50): 1 µM
